Test results: patent US20260258032A1, “TYROSINE KINASE 2 INHIBITORS AND USES THEREOF” (BIOGEN MA INC., priority 2022, published 2026)
Structures can show the parent of a compound that is named as a salt.

How the values were obtained:
JH2 domain of human Tyk2 = target: T1, JH2 domain of human Tyk2 (Homo sapiens, UniProt P29597); experiment: JH2 biochemical assay (TR-FRET probe displacement); type: binding; conditions: JH2 biochemical assay
T1 construct: 10×His-tagged TYK2 JH2 domain (amino acid 575-876)
T1 sequence (P29597 575-876): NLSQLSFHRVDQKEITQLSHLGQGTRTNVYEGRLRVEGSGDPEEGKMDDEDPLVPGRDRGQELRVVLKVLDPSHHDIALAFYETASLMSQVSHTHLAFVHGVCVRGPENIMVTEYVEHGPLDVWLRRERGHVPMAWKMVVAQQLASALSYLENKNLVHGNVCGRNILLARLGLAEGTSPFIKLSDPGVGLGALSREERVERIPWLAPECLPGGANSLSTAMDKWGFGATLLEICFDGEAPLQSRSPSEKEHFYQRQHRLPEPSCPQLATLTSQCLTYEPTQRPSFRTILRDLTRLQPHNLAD
Method: The inhibitory potency of compounds of the disclosure against the kinase activity of recombinantly generated JH2 domain of human Tyk2 was evaluated in a plate-based assay using a TR-FRET assay platform. Briefly, 2 nM of recombinant JH2 domain [10×His-tagged TYK2 JH2 domain (amino acid 575-876)] was combined with 2 nM probe ((S)-6-amino-9-(2-carboxy-4-((1-(3-(8-methyl-5-(methylamino)-8H-imidazo[4,5-d]thiazolo[5,4-b]pyridin-2-yl)phenyl)ethyl)carbamoyl)phenyl)-3-iminio-5-sulfo-3H-xanthene-4-sulfonate), 0.1 nM Tb-labeled anti-His antibody, and compounds of disclosure for 60 minutes. Compounds are tested at either […] top concentration, 10 points of 3-fold dilution. The TR-FRET signal […] by compounds and signal was calculated by taking the ratio of fluorescence at 520 nm and 495 nm. The data was normalized and the percent activity versus log concentration of compound was fitted with a 4-parameter logistic model to generate IC50 curves.

[1] = test system: Tyk2 kinase activity on STAT4; experiment: pSTAT4 cell assay (MSD, NK92 cells); type: cell-based; conditions: compounds 1 hr, stimulated 15 minutes
Method: The inhibitory potency of compounds of the disclosure against the Tyk2 kinase activity on STAT4 was evaluated using an MSD-platform plate-based assay format. NK92 cells natively expressing STAT4 and Tyk2 were serum-starved to reduce background phosphorylation levels, then cells were treated compounds for 1 hr with a 10-point four-fold dilution series starting at 10 μM. Cells were then stimulated with 30 ng/mL IL2 for 15 minutes. Cells were lysed and […] levels were quantitated using an MSD plate-based assay with anti-STAT4 antibodies. The data were normalized and the percent activity versus log concentration of compound were fitted with a 4-parameter logistic model to generate to generate IC50 curves.

Row | SMILES | IC50 (JH2 domain of human Tyk2) [nM] | IC50 [1] [nM]
1 | CC(=O)Nc1cc2c(cn1)C1(CC1)CN2c1cc([C@@H]2C[C@H]2C#N)nc(C(C)(F)F)n1 (racemic) [Example 72, trans-rac-N-(1′-(6-(2-cyanocyclopropyl)-2-(1,1-difluoroethyl)pyrimidin-4-yl)-1′,2′-dihydrospiro[cyclopropane-1,3′-pyrrolo[3,2-c]pyridin]-6′-yl)acetamide or cis-rac-N-(1′-(6-(2-cyanocyclopropyl)-2-(1,1-difluoroethyl)pyrimidin-4-yl)-1′,2′-dihydrospiro[cyclopropane-1,3′-pyrrolo[3,2-c]pyridin]-6′-yl)acetamide] | ≤ 10 | 100 to 1000
2 | CC(=O)Nc1cc2c(cn1)C1(CC1)CN2c1cc([C@@H]2C[C@@H]2C#N)nc(C(C)(F)F)n1 (racemic) [Example 73, cis-rac-N-(1′-(6-(2-cyanocyclopropyl)-2-(1,1-difluoroethyl)pyrimidin-4-yl)-1′,2′-dihydrospiro[cyclopropane-1,3′-pyrrolo[3,2-c]pyridin]-6′-yl)acetamide or trans-rac-N-(1′-(6-(2-cyanocyclopropyl)-2-(1,1-difluoroethyl)pyrimidin-4-yl)-1′,2′-dihydrospiro[cyclopropane-1,3′-pyrrolo[3,2-c]pyridin]-6′-yl)acetamide] | ≤ 10 | 10 to 100
3 | COCCOc1cc(N2CC3(CC3)c3cnc(NC(C)=O)cc32)nc(C(C)(F)F)n1 [Example 4, N-(1′-(2-(1,1-difluoroethyl)-6-(2-methoxyethoxy)pyrimidin-4-yl)-1′,2′-dihydrospiro[cyclopropane-1,3′-pyrrolo[3,2-c]pyridin]-6′-yl)acetamide] | ≤ 10 | 100 to 1000
4 | COC1CC(Oc2cc(N3CC4(CC4)c4cnc(NC(C)=O)cc43)nc(C(C)(F)F)n2)C1 (stereo not drawn) [Example 5, N-(1′-(2-(1,1-difluoroethyl)-6-(3-methoxycyclobutoxy)pyrimidin-4-yl)-1′,2′-dihydrospiro[cyclopropane-1,3′-pyrrolo[3,2-c]pyridin]-6′-yl)acetamide] | ≤ 10 | 10 to 100
5 | CC(=O)Nc1cc2c(cn1)C1(CC1)CN2c1cc(OC2CC2)nc(C(C)(F)F)n1 [Example 6, N-(1′-(6-cyclopropoxy-2-(1,1-difluoroethyl)pyrimidin-4-yl)-1′,2′-dihydrospiro[cyclopropane-1,3′-pyrrolo[3,2-c]pyridin]-6′-yl)acetamide] | ≤ 10 | 10 to 100
6 | CC(=O)Nc1cc2c(cn1)C1(CC1)CN2c1ccc(F)c(C(C)(F)F)n1 [Example 7, N-(1′-(6-(1,1-difluoroethyl)-5-fluoropyridin-2-yl)-1′,2′-dihydrospiro[cyclopropane-1,3′-pyrrolo[3,2-c]pyridin]-6′-yl)acetamide] | ≤ 10 | 100 to 1000
7 | COc1ccc(N2CC3(CC3)c3cnc(NC(C)=O)cc32)nc1C(C)(F)F [Example 8, N-(1′-(6-(1,1-difluoroethyl)-5-methoxypyridin-2-yl)-1′,2′-dihydrospiro[cyclopropane-1,3′-pyrrolo[3,2-c]pyridin]-6′-yl)acetamide] | ≤ 10 | 100 to 1000
8 | CC(=O)Nc1cc2c(cn1)C1(CC1)CN2c1cc(N(C)C)nc(C(C)(F)F)n1 [Example 20, N-(1′-(2-(1,1-difluoroethyl)-6-(dimethylamino)pyrimidin-4-yl)-1′,2′-dihydrospiro[cyclopropane-1,3′-pyrrolo[3,2-c]pyridin]-6′-yl)acetamide] | ≤ 10 | 100 to 1000
9 | COC1CC(c2cc(N3CC4(CC4)c4cnc(NC(C)=O)cc43)nc(C(C)(F)F)n2)C1 (stereo not drawn) [Example 23, N-(1′-(2-(1,1-difluoroethyl)-6-(3-methoxycyclobutyl)pyrimidin-4-yl)-1′,2′-dihydrospiro[cyclopropane-1,3′-pyrrolo[3,2-c]pyridin]-6′-yl)acetamid] | ≤ 10 | 10 to 100
10 | CC(=O)Nc1cc2c(cn1)C1(CC1)CN2c1cc(C2CCC2)nc(C(C)(F)F)n1 [Example 24, N-(1′-(6-cyclobutyl-2-(1,1-difluoroethyl)pyrimidin-4-yl)-1′,2′-dihydrospiro[cyclopropane-1,3'-pyrrolo[3,2-c]pyridin]-6'-yl)acetamide] | ≤ 10 | 10 to 100
11 | CC(=O)Nc1cc2c(cn1)C1(CC1)CN2c1cc(C2CCCO2)nc(C(C)(F)F)n1 (stereo not drawn) [Example 26, N-(1′-(2-(1,1-difluoroethyl)-6-(tetrahydrofuran-2-y1)pyrimidin-4-yl)-1′,2′-dihydrospiro[cyclopropane-1,3′-pyrrolo[3,2-c]pyridin]-6′-yl)acetamide] | ≤ 10 | 100 to 1000
12 | CSc1nc(C)cc(N2CC3(CC3)c3cnc(NC(C)=O)cc32)n1 [Example 29, N-(1′-(6-methyl-2-(methylthio)pyrimidin-4-yl)-1′,2′-dihydrospiro[cyclopropane-1,3′-pyrrolo[3,2-c]pyridin]-6′-yl)acetamide] | ≤ 10 | 100 to 1000
13 | CC(=O)Nc1cc2c(cn1)C1(CC1)CN2c1cc(Oc2ccnnc2)nc(C(C)(F)F)n1 [Example 147, N-(1′-(2-(1,1-difluoroethyl)-6-(pyridazin-4-yloxy)pyrimidin-4-yl)-1′,2′-dihydrospiro[cyclopropane-1,3′-pyrrolo[3,2-c]pyridin]-6′-yl)acetamide trifluoroacetate] | – | ≥ 1000
14 | CC(=O)Nc1cc2c(cn1)C1(CC1)CN2c1cc(NC23CC(C2)C3)nc(C(C)(F)F)n1 [Example 159, N-(1′-(6-(bicyclo[1.1.1]pentan-1-ylamino)-2-(1,1-difluoroethyl)pyrimidin-4-yl)-1′,2′-dihydrospiro[cyclopropane-1,3′-pyrrolo[3,2-c]pyridin]-6′-yl)acetamide trifluoroacetate] | – | 10 to 100
15 | CC(=O)Nc1cc2c(cn1)C1(CC1)CN2c1cc(C)nc(N2CCC(N(C)C)C2)n1 (stereo not drawn) [Example 215, N-(1′-(2-(3-(dimethylamino)pyrrolidin-1-yl)-6-methylpyrimidin-4-yl)-1′,2′-dihydrospiro[cyclopropane-1,3′-pyrrolo[3,2-c]pyridin]-6′-yl)acetamide] | – | ≥ 1000
16 | CC(=O)Nc1cc2c(cn1)C1(CC1)CN2c1cc(C)nc(-c2cnn(C3CCC3)c2)n1 [Example 246, N-(1′-(2-(1-cyclobutyl-1H-pyrazol-4-yl)-6-methylpyrimidin-4-yl)-1′,2′-dihydrospiro[cyclopropane-1,3′-pyrrolo[3,2-c]pyridin]-6′-yl)acetamide] | – | ≥ 1000
17 | CC(=O)Nc1cc2c(cn1)C1(CC1)CN2c1cc(C)nc(-c2cc[nH]n2)n1 [Example 252, N-(1′-(6-methyl-2-(1H-pyrazol-3-yl)pyrimidin-4-yl)-1′,2′-dihydrospiro[cyclopropane-1,3′-pyrrolo[3,2-c]pyridin]-6′-yl)acetamide trifluoroacetate] | – | 100 to 1000
18 | CC(=O)Nc1cc2c(cn1)C1(CC1)CN2c1cc(C)nc(-c2cnc(C)s2)n1 [Example 255, N-(1′-(6-methyl-2-(2-methylthiazol-5-yl)pyrimidin-4-yl)-1′,2′-dihydrospiro[cyclopropane-1,3′-pyrrolo[3,2-c]pyridin]-6′-yl)acetamide trifluoroacetate] | – | ≥ 1000
19 | CC(=O)Nc1cc2c(cn1)C1(CC1)CN2c1cc(CCCO)nc(C(C)(F)F)n1 [Example 295, N-(1′-(2-(1,1-difluoroethyl)-6-(3-hydroxypropyl)pyrimidin-4-yl)-1′,2′-dihydrospiro[cyclopropane-1,3′-pyrrolo[3,2-c]pyridin]-6′-yl)acetamide] | – | 10 to 100
20 | CC(=O)Nc1cc2c(cn1)C1(CC1)CN2c1cc(C(C)C#N)nc(C(C)(F)F)n1 (stereo not drawn) [Example 302, N-(1′-(6-(1-cyanoethyl)-2-(1,1-difluoroethyl)pyrimidin-4-yl)-1′,2′-dihydrospiro[cyclopropane-1,3′-pyrrolo[3,2-c]pyridin]-6′-yl)acetamide] | – | 100 to 1000
21 | COCCOc1nc(C)cc(N2CC3(CC3)c3cnc(NC(C)=O)cc32)n1 [Example 360, N-(1′-(2-(2-methoxyethoxy)-6-methylpyrimidin-4-yl)-1′,2′-dihydrospiro[cyclopropane-1,3′-pyrrolo[3,2-c]pyridin]-6′-yl)acetamide trifluoroacetate] | – | ≥ 1000
22 | CC(=O)Nc1cc2c(cn1)C1(CC1)CN2c1cc(C)nc(OC(C)C)n1 [Example 362, N-(1′-(2-isopropoxy-6-methylpyrimidin-4-yl)-1′,2′-dihydrospiro[cyclopropane-1,3′-pyrrolo[3,2-c]pyridin]-6′-yl)acetamide trifluoroacetate] | – | 100 to 1000
23 | CC(=O)Nc1cc2c(cn1)C1(CC1)CN2c1cc(C)nc(OC2(C)COC2)n1 [Example 365, N-(1′-(6-methyl-2-((3-methyloxetan-3-yl)oxy)pyrimidin-4-yl)-1′,2′-dihydrospiro[cyclopropane-1,3′-pyrrolo[3,2-c]pyridin]-6′-yl)acetamide] | – | 100 to 1000
24 | CC(=O)Nc1cc2c(cn1)C1(CC1)CN2c1cc(C)nc(OCC2COC2)n1 [Example 366, N-(1′-(6-methyl-2-(oxetan-3-ylmethoxy)pyrimidin-4-yl)-1′,2′-dihydrospiro[cyclopropane-1,3′-pyrrolo[3,2-c]pyridin]-6′-yl)acetamide trifluoroacetate] | – | 100 to 1000
